Test results as given in publication PMC4290489, “Identification of multiple salicylic acid-binding proteins using two high throughput screens” (Frontiers in Plant Science, 2015).

Tests used:
Assay type in all cases: binding
[1] = target: T1, GSR2 (Arabidopsis thaliana, UniProt Q8LCE1); assay: SPR competition on 3AESA chip; competition of 4AzSA photo-crosslinking; conditions: 1-5 mM SA, HBS-EP pH 7.4 (SPR); competes with 3AESA and 4AzSA
T1 construct: gene GLN1-2; N-terminal His6 (pET28a), from E. coli
T1 sequence (Q8LCE1 1-356): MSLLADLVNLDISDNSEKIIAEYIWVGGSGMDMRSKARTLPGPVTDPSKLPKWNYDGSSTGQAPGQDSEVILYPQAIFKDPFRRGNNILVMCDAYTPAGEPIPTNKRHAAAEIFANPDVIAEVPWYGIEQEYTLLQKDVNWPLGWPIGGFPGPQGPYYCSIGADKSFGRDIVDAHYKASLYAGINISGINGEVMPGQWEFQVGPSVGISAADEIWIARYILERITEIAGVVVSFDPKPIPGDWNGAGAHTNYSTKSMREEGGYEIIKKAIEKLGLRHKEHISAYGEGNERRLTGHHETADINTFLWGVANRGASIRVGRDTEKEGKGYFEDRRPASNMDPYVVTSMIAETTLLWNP

[2] = target: T2, TPPII (Arabidopsis thaliana, UniProt F4JVN6); assay: as above; conditions: 1-5 mM SA, HBS-EP pH 7.4 (SPR); competes with 3AESA and 4AzSA
T2 construct: gene TPP2; N-terminal His6 (pET28a), from E. coli
T2 sequence (F4JVN6 1-1380): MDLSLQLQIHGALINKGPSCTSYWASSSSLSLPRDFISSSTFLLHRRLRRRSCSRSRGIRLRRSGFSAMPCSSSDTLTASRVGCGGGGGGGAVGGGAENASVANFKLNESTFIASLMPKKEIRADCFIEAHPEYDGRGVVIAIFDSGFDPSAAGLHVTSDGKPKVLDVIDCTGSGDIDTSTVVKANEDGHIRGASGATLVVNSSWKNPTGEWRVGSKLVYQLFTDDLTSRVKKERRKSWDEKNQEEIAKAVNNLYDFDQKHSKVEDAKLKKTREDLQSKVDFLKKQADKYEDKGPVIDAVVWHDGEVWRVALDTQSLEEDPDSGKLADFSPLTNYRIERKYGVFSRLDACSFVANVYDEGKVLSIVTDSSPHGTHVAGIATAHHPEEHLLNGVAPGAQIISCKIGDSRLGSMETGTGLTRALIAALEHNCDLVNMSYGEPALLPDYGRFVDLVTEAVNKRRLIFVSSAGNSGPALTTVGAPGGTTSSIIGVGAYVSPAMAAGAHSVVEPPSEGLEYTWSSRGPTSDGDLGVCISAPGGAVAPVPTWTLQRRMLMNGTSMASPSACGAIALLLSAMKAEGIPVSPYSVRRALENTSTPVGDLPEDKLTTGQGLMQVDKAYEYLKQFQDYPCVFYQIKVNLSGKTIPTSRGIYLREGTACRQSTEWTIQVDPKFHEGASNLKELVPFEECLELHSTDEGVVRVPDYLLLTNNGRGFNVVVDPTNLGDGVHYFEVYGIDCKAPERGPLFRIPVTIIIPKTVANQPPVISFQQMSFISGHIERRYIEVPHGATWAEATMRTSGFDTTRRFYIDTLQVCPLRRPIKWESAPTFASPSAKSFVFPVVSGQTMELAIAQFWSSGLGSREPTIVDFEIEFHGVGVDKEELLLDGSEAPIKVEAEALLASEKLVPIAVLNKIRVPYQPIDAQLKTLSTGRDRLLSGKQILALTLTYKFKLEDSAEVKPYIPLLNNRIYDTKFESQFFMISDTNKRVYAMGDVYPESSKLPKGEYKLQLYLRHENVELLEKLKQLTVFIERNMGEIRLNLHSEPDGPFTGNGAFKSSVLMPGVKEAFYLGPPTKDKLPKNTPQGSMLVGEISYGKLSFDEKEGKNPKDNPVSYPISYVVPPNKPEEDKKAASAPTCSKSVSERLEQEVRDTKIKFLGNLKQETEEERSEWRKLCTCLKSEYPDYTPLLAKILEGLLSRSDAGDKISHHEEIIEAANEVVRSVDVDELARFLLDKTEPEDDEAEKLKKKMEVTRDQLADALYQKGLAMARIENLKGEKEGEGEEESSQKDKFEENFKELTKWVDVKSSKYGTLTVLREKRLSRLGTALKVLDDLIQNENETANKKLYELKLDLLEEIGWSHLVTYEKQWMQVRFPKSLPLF

[3] = target: T3, TRX-m1 (Arabidopsis thaliana, UniProt O48737); assay: as above; conditions: 1-5 mM SA, HBS-EP pH 7.4 (SPR); competes with 3AESA and 4AzSA
T3 construct: gene At1g03680; N-terminal His6 (pET28a), from E. coli
T3 sequence (O48737 49-179): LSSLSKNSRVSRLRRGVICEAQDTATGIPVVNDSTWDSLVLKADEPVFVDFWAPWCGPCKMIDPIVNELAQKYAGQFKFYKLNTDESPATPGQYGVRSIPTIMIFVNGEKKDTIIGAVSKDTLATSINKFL

[4] = target: T4, RBCS1A (Arabidopsis thaliana, UniProt P10795); assay: UV photo-crosslinking, anti-SA immunoblot; conditions: 50 uM 4AzSA, PBS, on ice, 254 nm UV; covalent; competed by SA
T4 construct: gene RBCS-1A; small subunit alone, N-terminal His6 (pET28a), from E. coli

[5] = target: T5, NPR1 (Arabidopsis thaliana, UniProt P93002); assay: UV photo-crosslinking, anti-SA immunoblot; conditions: 50 uM 4AzSA, PBS, on ice, 254 nm UV; covalent; competed by SA
T5 construct: N-terminal His6-MBP fusion (pET-MALHT), from E. coli, Ni-NTA and gel filtration
T5 sequence (P93002 1-593): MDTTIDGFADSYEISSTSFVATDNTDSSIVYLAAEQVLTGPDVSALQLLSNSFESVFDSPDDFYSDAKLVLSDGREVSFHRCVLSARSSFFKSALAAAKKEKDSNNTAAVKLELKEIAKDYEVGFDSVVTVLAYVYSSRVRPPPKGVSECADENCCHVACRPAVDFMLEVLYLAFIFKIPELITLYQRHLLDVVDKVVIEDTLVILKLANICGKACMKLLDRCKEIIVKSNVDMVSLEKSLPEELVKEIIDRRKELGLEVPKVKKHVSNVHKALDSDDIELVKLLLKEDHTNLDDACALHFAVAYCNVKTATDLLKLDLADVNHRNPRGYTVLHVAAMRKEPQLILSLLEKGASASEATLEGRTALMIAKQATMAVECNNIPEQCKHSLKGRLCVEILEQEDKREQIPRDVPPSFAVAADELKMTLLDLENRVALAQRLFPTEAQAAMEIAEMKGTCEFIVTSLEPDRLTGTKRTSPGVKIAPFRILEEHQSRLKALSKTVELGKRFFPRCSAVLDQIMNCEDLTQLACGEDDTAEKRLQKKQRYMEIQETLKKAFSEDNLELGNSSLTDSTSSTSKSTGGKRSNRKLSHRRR

Compound	SPR competition on 3AESA chip; competition of 4AzSA photo-crosslinking [1]	SPR competition on 3AESA chip; competition of 4AzSA photo-crosslinking [2]	SPR competition on 3AESA chip; competition of 4AzSA photo-crosslinking [3]	UV photo-crosslinking, anti-SA immunoblot [4]	UV photo-crosslinking, anti-SA immunoblot [5]
O=C(O)c1ccccc1O [SA]	bound 3AESA and crosslinked to 4AzSA in an SA-inhibitable manner, indicating that they are SABPs	SA competes with 3AESA and 4AzSA for binding by TRX-m1, TPPII, SHM4, and LOX2	SA competes with 3AESA and 4AzSA for binding by TRX-m1, TPPII, SHM4, and LOX2	–	–
[N-]=[N+]=Nc1ccc(C(=O)O)c(O)c1 [4AzSA]	–	–	–	bound 3AESA and crosslinked to 4AzSA in an SA-inhibitable manner, indicating that they are SABPs	NPR1 bound and was crosslinked to 4AzSA; this crosslinking was suppressed by increasing levels of SA
